Reference: patent publication US20230096766A1, “AMINO ACID HAVING FUNCTIONAL GROUP CAPABLE OF INTERMOLECULAR HYDROGEN BONDING, PEPTIDE COMPOUND CONTAINING SAME AND METHOD FOR PRODUCTION THEREOF” (Chugai Seiyaku Kabushiki Kaisha, priority 2018, published 2023)
*1 amine or outer side, *2 acyl side, *3 side chain or, on linkers, in order; H or OH if unused. Where a SMILES comes first, the peptide text is derived from it. Bridges are numbered along the chain shown (N, C = ends). [ ]: non-standard residue; d: D form. The star is where a group is joined. Phe(3-CONHMe,4-OMe) = CNC(=O)c1cc(C[C@H](N)C(=O)O)ccc1OC; NMePhe(3-Cl) = CN[C@@H](Cc1cccc(Cl)c1)C(=O)O; X12 = O=C([C@H](CCCC(O)C(F)(F)F)N[*:1])[*:2]; Propyl(2,2-Me2,3-OH) = CC(C)(CO)C*; NMeF = CN[C@@H](Cc1ccccc1)C(=O)O; NMeGABA = CN(CCCC(=O)[*:2])[*:1]; NMeI = CC[C@H](C)[C@H](NC)C(=O)O; NMeD = CN[C@@H](CC(=O)O)C(=O)O; NMeL = CN[C@@H](CC(C)C)C(=O)O; Propyl(2R-OH) = C[C@@H](O)C*; NMeV = CN[C@H](C(=O)O)C(C)C; NMeAbu = CC[C@H](NC)C(=O)O; NMeA = CN[C@@H](C)C(=O)O; Piperidide = C1CCN(*)CC1; NBuGly = CCCCNCC(=O)O; Isopentyl = CC(C)CC*; NPrGly = CCCNCC(=O)O; Propyl(3-OH) = OCCC*; X3 = C[C@H](O)C*; Sar = CNCC(=O)O; tBu = CC(C)(C)*

Experiment: in vitro
Settings: human, Caco-2, Caco-2 (cm/sec)

Compound | Papp [×10⁻⁶ cm/s]
CC(C)C[C@@H]1NC(=O)[C@H](CC(C)C)N(C)C(=O)C[C@@H](C(=O)N2CCCCC2)NC(=O)[C@H](CC(C)C)N(C)C(=O)CN(C)C(=O)[C@H]([C@@H](C)O)NC(=O)[C@H](CC(C)C)N(C)C(=O)[C@H](Cc2ccccc2)N(C)C(=O)[C@H](COCCCO)NC(=O)[C@H](Cc2ccccc2)N(C)C(=O)[C@H](CC(C)C)N(C)C1=O [AP94] ([NMeL]L[NMeL][NMeF]S(Propyl(3-OH))[NMeF][NMeL]T[Sar][NMeL]D-Piperidide; lactam N-11) | 0.35
CC[C@H](C)[C@H]1C(=O)N[C@@H]([C@@H](C)O)C(=O)N(C)CC(=O)N(C)[C@@H](CC)C(=O)N[C@H](C(=O)N2CCCCC2)CC(=O)N(C)[C@@H](CC(C)C)C(=O)N[C@@H](Cc2ccc(OC)c(C(=O)NC)c2)C(=O)N(C)[C@@H](CC(C)C)C(=O)N(C)[C@@H](Cc2ccccc2)C(=O)N[C@@H](CC(C)C)C(=O)N(C)[C@@H](CC(C)C)C(=O)N1C [AP39] ([NMeL][Phe(3-CONHMe,4-OMe)][NMeL][NMeF]L[NMeL][NMeI]T[Sar][NMeAbu]D-Piperidide; lactam N-11) | 0.01
CC(C)C[C@@H]1NC(=O)[C@H](Cc2ccccc2)N(C)C(=O)[C@H](COC(C)(C)C)NC(=O)[C@H](Cc2ccccc2)N(C)C(=O)[C@H](C)N(C)C(=O)[C@H](CC(C)C)N(C)C(=O)[C@H](C)N(C)C(=O)C[C@@H](C(=O)N2CCCCC2)N(C)C(=O)[C@H](Cc2ccccc2)N(C)C(=O)[C@H]([C@@H](C)O)NC(=O)[C@H](C(C)C)N(C)C1=O [pd213] ([NMeA][NMeL][NMeA][NMeF]S(tBu)[NMeF]L[NMeV]T[NMeF][NMeD]-Piperidide; lactam N-11) | 1.3
CCCN1CC(=O)N(C)[C@@H](Cc2ccccc2)C(=O)N(C)[C@@H](CC(C)C)C(=O)N[C@@H](COCCC(C)C)C(=O)N(C)[C@@H](CC(C)C)C(=O)N[C@H](C(=O)N2CCCCC2)CC(=O)N(C)CC(=O)N(C)[C@@H](Cc2cccc(Cl)c2)C(=O)N[C@@H](COC[C@H](C)O)C(=O)N(C)[C@@H](CC(C)C)C(=O)N[C@@H]([C@@H](C)O)C1=O [AP67] ([Sar][NMePhe(3-Cl)]S(X3)[NMeL]T[NPrGly][NMeF][NMeL]S(Isopentyl)[NMeL]D-Piperidide; lactam N-11) | 0.71
CC(C)C[C@@H]1NC(=O)[C@H](Cc2ccccc2)N(C)C(=O)[C@@H](C(C)C)NC(=O)C[C@@H](C(=O)N2CCCCC2)NC(=O)[C@H](CC(C)C)N(C)C(=O)[C@H](Cc2ccccc2)N(C)C(=O)[C@H](COCC(C)(C)CO)NC(=O)[C@H](CC(C)C)N(C)C(=O)CN(C)C(=O)[C@H]([C@@H](C)O)NC(=O)[C@H](CC(C)C)N(C)C1=O [AP118] ([dV][NMeF]L[NMeL]T[Sar][NMeL]S(Propyl(2,2-Me2,3-OH))[NMeF][NMeL]D-Piperidide; lactam N-11) | 1.8
CC[C@H](C)[C@@H]1NC(=O)[C@H](CC(C)C)N(C)C(=O)CCCN(C)C(=O)C[C@@H](C(=O)N2CCCCC2)NC(=O)[C@H](CC(C)C)N(C)C(=O)[C@H](CC(C)C)N(C)C(=O)[C@H]([C@@H](C)O)NC(=O)[C@H](CC(C)C)N(C)C(=O)[C@H](COC[C@@H](C)O)NC(=O)[C@H](Cc2cccc(Cl)c2)N(C)C(=O)[C@H](Cc2ccccc2)N(C)C1=O [AP74] ([NMeGABA][NMeL]I[NMeF][NMePhe(3-Cl)]S(Propyl(2R-OH))[NMeL]T[NMeL][NMeL]D-Piperidide; lactam N-11) | 0.31

Same assay, conditions: human, Caco-2, Caco-2 (cm/sec) Papp

Compound | Papp [×10⁻⁶ cm/s]
CC(C)C[C@H]1C(=O)N(C)[C@@H](Cc2ccccc2)C(=O)N(C)[C@@H](Cc2ccccc2)C(=O)N[C@@H]([C@@H](C)O)C(=O)N(C)[C@@H](C)C(=O)N(C)[C@@H](Cc2ccccc2)C(=O)N[C@H](C(=O)N2CCCCC2)CC(=O)N(C)[C@@H](C)C(=O)N(C)[C@@H](CC(C)C)C(=O)N(C)[C@@H](Cc2ccccc2)C(=O)N[C@@H](C)C(=O)N1C [pd232] ([NMeA][NMeL][NMeF]A[NMeL][NMeF][NMeF]T[NMeA][NMeF]D-Piperidide; lactam N-11) | 0.19
CC(C)C[C@@H]1NC(=O)[C@H](Cc2ccccc2)N(C)C(=O)[C@H]([C@@H](C)O)NC(=O)[C@H](Cc2ccccc2)NC(=O)[C@H](Cc2ccccc2)N(C)C(=O)C[C@@H](C(=O)N2CCCCC2)NC(=O)[C@H](C)N(C)C(=O)[C@H](CC(C)C)N(C)C(=O)CN(C)C(=O)[C@H](CC(C)C)N(C)C(=O)[C@H](Cc2ccccc2)N(C)C1=O [pd230] ([NMeF]FT[NMeF]L[NMeF][NMeL][Sar][NMeL][NMeA]D-Piperidide; lactam N-11) | 0.25

Same assay, conditions: human, Caco-2, Caco-2 (membrane permeability)

Compound | Papp [×10⁻⁶ cm/s]
CCCCN1CC(=O)N(C)[C@@H](CC(C)C)C(=O)N[C@@H](CCCC(O)C(F)(F)F)C(=O)N(C)[C@@H](Cc2ccccc2)C(=O)N(C)[C@@H](C(C)C)C(=O)N[C@H](C(=O)N2CCCCC2)CC(=O)N[C@H](C(C)C)C(=O)N(C)[C@@H](Cc2ccccc2)C(=O)N[C@@H](CC(C)C)C(=O)N(C)[C@@H](CC(C)C)C(=O)N[C@@H]([C@@H](C)O)C1=O (stereo partly drawn) [Compound D09] ([dV][NMeF]L[NMeL]T[NBuGly][NMeL][X12][NMeF][NMeV]D-Piperidide; lactam N-11) | 0.13
CCCCN1CC(=O)N(C)[C@@H](Cc2ccccc2)C(=O)N(C)[C@@H](CC(C)C)C(=O)N[C@@H](COC(C)(C)C)C(=O)N(C)[C@@H](CC(C)C)C(=O)N[C@H](C(=O)N2CCCCC2)CC(=O)N(C)CC(=O)N(C)[C@@H](Cc2ccccc2)C(=O)N[C@@H](C(C)C)C(=O)N(C)[C@@H](CC)C(=O)N[C@@H](CCCC(O)C(F)(F)F)C1=O (stereo partly drawn) [Compound D16] ([Sar][NMeF]V[NMeAbu][X12][NBuGly][NMeF][NMeL]S(tBu)[NMeL]D-Piperidide; lactam N-11) | 0.51
